Data published in publication PMC5668240, “Fragment-based screening identifies novel targets for inhibitors of conjugative transfer of antimicrobial resistance by plasmid pKM101” (Scientific Reports, 2017).

Key:
[1] = tested on: conjugative transfer of plasmid pKM101; experiment: Conjugation assay, pKM101-carrying donor FM433 and plasmid-free recipient WL400; type: cell-based; conditions: 50 μM, 2.5% DMSO
Experimental: Quantitation of conjugative DNA transfer was performed as described previously. For analysis of the inhibition of conjugation by fragments or small molecules, the cells were cultivated on agar and in liquid media in the presence of 50 μM of the small molecules in the presence of 2.5% DMSO.

[2] = biological target: T1, purified periplasmic domain of TraE (plasmid pKM101) (Escherichia coli, UniProt Q17U16); experiment: Binding to TraE by fluorescence quenching (intrinsic UV fluorescence); conditions: 20 °C, 20 mM HEPES, 50 mM NaCl, pH 7.4; single site saturation fit
T1 sequence (Q17U16 entry or part of it): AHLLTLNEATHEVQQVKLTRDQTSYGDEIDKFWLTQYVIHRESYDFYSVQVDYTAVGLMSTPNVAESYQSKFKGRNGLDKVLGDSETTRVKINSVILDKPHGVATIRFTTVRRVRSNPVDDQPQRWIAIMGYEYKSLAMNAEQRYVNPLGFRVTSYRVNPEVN
Experimental: Protein overexpression and purification was performed as described previously. The TraE buffer was changed to 20 mM HEPES, 50 mM NaCl, pH 7.4. TraE protein concentrations were determined using the molar extinction coefficient at 280 nm of 25 900 M^−1 cm^−1.
Changes of the intrinsic UV fluorescence emission of TraE upon binding of fragments and small molecules were recorded at 20 °C with a Cary Eclipse Fluorometer (Varian) (λex 295 nm, λem 340 nm, 5 nm excitation and emission slit widths) in 20 mM HEPES, 50 mM NaCl, pH 7.4. The spectra were corrected for dilution effects and KD values were calculated from the ligand binding fluorescence data fitted to a single site saturation curve with constant background using the Grafit 6.0 software package.

[3] = tested on: purified periplasmic domain of TraE; experiment: In vitro DSS cross-linking assay of TraE dimerization; type: biochemical; conditions: 0–1.6 mM molecule, normalized to control without small molecules
Experimental: Chemical crosslinking with disuccinimidyl suberate (DSS, Pierce) was performed as described previously[13] and the formation of crosslinking products was quantified by SDS-PAGE and using the ImageLab Software 4.0 (Bio-Rad).

[4] = biological target: T1, purified periplasmic domain of TraE (plasmid pKM101); experiment: Differential scanning fluorimetry (DSF) thermal shift of TraE; type: binding; conditions: 5 mM fragment or small molecule, 5 μM protein; hit when ΔTm higher than 1 °C
Experimental: A library of 505 fragments was used in this study of which 186 were previously described[14] and the others are listed in Supplementary Table 3. DSF experiments were performed as described previously. DSF was conducted using 5 μM of protein, 10X concentration of SYPRO Orange (from 5000X stock solution, ThermoFisher) in 20 mM HEPES, 50 mM NaCl, pH 7.4 and 5% final concentration of DMSO. For fragment-based screening and molecule optimization, fragments or small molecules were added to final concentrations of 5 mM. SYPRO Orange fluorescence was monitored over 20–95 °C with a LightCycler® 480 instrument (Roche, USA). The LightCycler® 480 Software (Roche) was used to calculate the first derivate of the resulting melting curve, with the steepest point of the slope being the Tm. Fragments were considered to be hits when ΔTm was higher than 1 °C, which is two times higher than the standard deviation of the DMSO control.

Row | Molecule | Effect on conjugative transfer of pKM101 [1] | Kd [2] [µM] | Effect on formation of DSS-dependent cross-linking products of TraE (dimerization) [3] | Effect on thermal melting point of TraE (DSF) [4]
1 | 2-chloroisonicotinic acid [4H10] | no effect on conjugation | 32 ± 1.8 |  | 
2 | O=C(O)c1ccco1 [1E6, 2-furoic acid] | no effect on conjugation | 23 ± 1.9 |  | 
3 | O=C(O)c1cc(-n2cccc2)ccn1 [compound 105055, 4-(1H-pyrrol-1-yl)pyridine-2-carboxylic acid] | significantly reduce conjugative DNA transfer | 9.3 ± 0.4 | significantly inhibit cross-linking | stabilized the protein
4 | O=C(O)c1ccnc(-c2ccco2)c1 [compound 239852, 2-(2-furyl)isonicotinic acid] | significantly reduce conjugative DNA transfer | 19.6 ± 1.2 | significantly inhibit cross-linking | stabilized the protein
